Source: ChEMBL document CHEMBL5614394, “Novel pleuromutilin derivatives conjugated with phenyl-sulfide and boron-containing moieties as potent antibacterial agents against antibiotic-resistant bacteria” (Eur J Med Chem, 2024)
Converted amounts (≈) assume the structure as drawn.

tested on: Staphylococcus epidermidis; assay: Antibacterial activity against Staphylococcus epidermidis ATCC 12228 assessed as inhibition of visible growth of bacteria incubated for 24 hrs by CLSI protocol based broth-dilution method; assay type: functional

| SMILES | MIC |
| --- | --- |
| C=C[C@]1(C)C[C@@H](OC(=O)CSc2ccc(NC(=O)c3ccc(B(O)O)cc3F)cc2)[C@]2(C)[C@H](C)CC[C@]3(CCC(=O)[C@H]32)[C@@H](C)[C@@H]1O | 4 µg/mL (≈ 6.14 µM) |
| C=C[C@]1(C)C[C@@H](OC(=O)CSc2cccc(NC(=O)c3cc(B(O)O)cc(C(F)(F)F)c3)c2)[C@]2(C)[C@H](C)CC[C@]3(CCC(=O)[C@H]32)[C@@H](C)[C@@H]1O | 0.5 µg/mL (≈ 0.713 µM) |
| C=C[C@]1(C)C[C@@H](OC(=O)CSc2cccc(NC(=O)c3ccc(B4OC(C)(C)C(C)(C)O4)cc3)c2)[C@]2(C)[C@H](C)CC[C@]3(CCC(=O)[C@H]32)[C@@H](C)[C@@H]1O | 0.063 µg/mL (≈ 0.088 µM) |
| C=C[C@]1(C)C[C@@H](OC(=O)CSc2cccc(NC(=O)c3cccc(B(O)O)c3)c2)[C@]2(C)[C@H](C)CC[C@]3(CCC(=O)[C@H]32)[C@@H](C)[C@@H]1O | 0.063 µg/mL (≈ 0.0994 µM) |
| C=C[C@]1(C)C[C@@H](OC(=O)CSc2cccc(NC(=O)c3cc(N)cc(B(O)O)c3)c2)[C@]2(C)[C@H](C)CC[C@]3(CCC(=O)[C@H]32)[C@@H](C)[C@@H]1O | 0.063 µg/mL (≈ 0.0971 µM) |
| C=C[C@]1(C)C[C@@H](OC(=O)CSc2cccc(NCc3ccc(B(O)O)cc3)c2)[C@]2(C)[C@H](C)CC[C@]3(CCC(=O)[C@H]32)[C@@H](C)[C@@H]1O | 0.063 µg/mL (≈ 0.102 µM) |
| C=C[C@]1(C)C[C@@H](OC(=O)CSc2cccc(NC(=O)c3ccc(B(O)O)o3)c2)[C@]2(C)[C@H](C)CC[C@]3(CCC(=O)[C@H]32)[C@@H](C)[C@@H]1O | 0.063 µg/mL (≈ 0.101 µM) |
| C=C[C@]1(C)C[C@@H](OC(=O)CSc2ccc(NC(=O)c3cc(B(O)O)ccc3F)cc2)[C@]2(C)[C@H](C)CC[C@]3(CCC(=O)[C@H]32)[C@@H](C)[C@@H]1O | 1 µg/mL (≈ 1.53 µM) |

Results, then the molecule that gave them:

| MIC | SMILES |
| --- | --- |
| 0.031 µg/mL (≈ 0.0467 µM) | C=C[C@]1(C)C[C@@H](OC(=O)CSc2cccc(NC(=O)c3ccc(OC)c(B(O)O)c3)c2)[C@]2(C)[C@H](C)CC[C@]3(CCC(=O)[C@H]32)[C@@H](C)[C@@H]1O |
| 0.063 µg/mL (≈ 0.0973 µM) | C=C[C@]1(C)C[C@@H](OC(=O)CSc2cccc(NC(=O)Cc3ccc(B(O)O)cc3)c2)[C@]2(C)[C@H](C)CC[C@]3(CCC(=O)[C@H]32)[C@@H](C)[C@@H]1O |
| 0.031 µg/mL (≈ 0.05 µM) | C=C[C@]1(C)C[C@@H](OC(=O)CSc2cccc(NCc3ccccc3B(O)O)c2)[C@]2(C)[C@H](C)CC[C@]3(CCC(=O)[C@H]32)[C@@H](C)[C@@H]1O |
| 0.063 µg/mL (≈ 0.0967 µM) | C=C[C@]1(C)C[C@@H](OC(=O)CSc2cccc(NC(=O)c3cc(B(O)O)ccc3F)c2)[C@]2(C)[C@H](C)CC[C@]3(CCC(=O)[C@H]32)[C@@H](C)[C@@H]1O |
| 0.031 µg/mL (≈ 0.0476 µM) | C=C[C@]1(C)C[C@@H](OC(=O)CSc2cccc(NC(=O)c3cc(F)cc(B(O)O)c3)c2)[C@]2(C)[C@H](C)CC[C@]3(CCC(=O)[C@H]32)[C@@H](C)[C@@H]1O |
| 0.031 µg/mL (≈ 0.0479 µM) | C=C[C@]1(C)C[C@@H](OC(=O)CSc2cccc(NC(=O)c3cc(C)cc(B(O)O)c3)c2)[C@]2(C)[C@H](C)CC[C@]3(CCC(=O)[C@H]32)[C@@H](C)[C@@H]1O |
| 0.031 µg/mL (≈ 0.0467 µM) | C=C[C@]1(C)C[C@@H](OC(=O)CSc2cccc(NC(=O)c3cc(B(O)O)ccc3OC)c2)[C@]2(C)[C@H](C)CC[C@]3(CCC(=O)[C@H]32)[C@@H](C)[C@@H]1O |

tested on: Staphylococcus aureus; assay: Antibacterial activity against Staphylococcus aureus ATCC 29213 assessed as inhibition of visible growth of bacteria incubated for 24 hrs by CLSI protocol based broth-dilution method; assay type: functional

| SMILES | MIC |
| --- | --- |
| C=C[C@]1(C)C[C@@H](OC(=O)CSc2ccc(NC(=O)c3ccc(B(O)O)cc3F)cc2)[C@]2(C)[C@H](C)CC[C@]3(CCC(=O)[C@H]32)[C@@H](C)[C@@H]1O | 0.063 µg/mL (≈ 0.0967 µM) |
| C=C[C@]1(C)C[C@@H](OC(=O)CSc2cccc(NC(=O)c3cc(B(O)O)cc(C(F)(F)F)c3)c2)[C@]2(C)[C@H](C)CC[C@]3(CCC(=O)[C@H]32)[C@@H](C)[C@@H]1O | 0.063 µg/mL (≈ 0.0898 µM) |
| C=C[C@]1(C)C[C@@H](OC(=O)CSc2cccc(NC(=O)c3ccc(B4OC(C)(C)C(C)(C)O4)cc3)c2)[C@]2(C)[C@H](C)CC[C@]3(CCC(=O)[C@H]32)[C@@H](C)[C@@H]1O | 0.063 µg/mL (≈ 0.088 µM) |
| C=C[C@]1(C)C[C@@H](OC(=O)CSc2cccc(NC(=O)c3cccc(B(O)O)c3)c2)[C@]2(C)[C@H](C)CC[C@]3(CCC(=O)[C@H]32)[C@@H](C)[C@@H]1O | 0.063 µg/mL (≈ 0.0994 µM) |
| C=C[C@]1(C)C[C@@H](OC(=O)CSc2cccc(NC(=O)c3cc(N)cc(B(O)O)c3)c2)[C@]2(C)[C@H](C)CC[C@]3(CCC(=O)[C@H]32)[C@@H](C)[C@@H]1O | 0.063 µg/mL (≈ 0.0971 µM) |
| C=C[C@]1(C)C[C@@H](OC(=O)CSc2cccc(NCc3ccc(B(O)O)cc3)c2)[C@]2(C)[C@H](C)CC[C@]3(CCC(=O)[C@H]32)[C@@H](C)[C@@H]1O | 0.063 µg/mL (≈ 0.102 µM) |
| C=C[C@]1(C)C[C@@H](OC(=O)CSc2cccc(NC(=O)c3ccc(B(O)O)o3)c2)[C@]2(C)[C@H](C)CC[C@]3(CCC(=O)[C@H]32)[C@@H](C)[C@@H]1O | 0.5 µg/mL (≈ 0.802 µM) |
| C=C[C@]1(C)C[C@@H](OC(=O)CSc2ccc(NC(=O)c3cc(B(O)O)ccc3F)cc2)[C@]2(C)[C@H](C)CC[C@]3(CCC(=O)[C@H]32)[C@@H](C)[C@@H]1O | 0.063 µg/mL (≈ 0.0967 µM) |

Other lines, results leading:

| MIC | SMILES |
| --- | --- |
| 0.031 µg/mL (≈ 0.0467 µM) | C=C[C@]1(C)C[C@@H](OC(=O)CSc2cccc(NC(=O)c3ccc(OC)c(B(O)O)c3)c2)[C@]2(C)[C@H](C)CC[C@]3(CCC(=O)[C@H]32)[C@@H](C)[C@@H]1O |
| 0.063 µg/mL (≈ 0.0973 µM) | C=C[C@]1(C)C[C@@H](OC(=O)CSc2cccc(NC(=O)Cc3ccc(B(O)O)cc3)c2)[C@]2(C)[C@H](C)CC[C@]3(CCC(=O)[C@H]32)[C@@H](C)[C@@H]1O |
| 0.031 µg/mL (≈ 0.05 µM) | C=C[C@]1(C)C[C@@H](OC(=O)CSc2cccc(NCc3ccccc3B(O)O)c2)[C@]2(C)[C@H](C)CC[C@]3(CCC(=O)[C@H]32)[C@@H](C)[C@@H]1O |
| 0.063 µg/mL (≈ 0.0967 µM) | C=C[C@]1(C)C[C@@H](OC(=O)CSc2cccc(NC(=O)c3cc(B(O)O)ccc3F)c2)[C@]2(C)[C@H](C)CC[C@]3(CCC(=O)[C@H]32)[C@@H](C)[C@@H]1O |
| 0.031 µg/mL (≈ 0.0476 µM) | C=C[C@]1(C)C[C@@H](OC(=O)CSc2cccc(NC(=O)c3cc(F)cc(B(O)O)c3)c2)[C@]2(C)[C@H](C)CC[C@]3(CCC(=O)[C@H]32)[C@@H](C)[C@@H]1O |
| 0.031 µg/mL (≈ 0.0479 µM) | C=C[C@]1(C)C[C@@H](OC(=O)CSc2cccc(NC(=O)c3cc(C)cc(B(O)O)c3)c2)[C@]2(C)[C@H](C)CC[C@]3(CCC(=O)[C@H]32)[C@@H](C)[C@@H]1O |
| 0.031 µg/mL (≈ 0.0467 µM) | C=C[C@]1(C)C[C@@H](OC(=O)CSc2cccc(NC(=O)c3cc(B(O)O)ccc3OC)c2)[C@]2(C)[C@H](C)CC[C@]3(CCC(=O)[C@H]32)[C@@H](C)[C@@H]1O |
